Reference: US11891634B2, “PDE5A destabilizing domains” (The Board of Trustees of the Leland Stanford Junior …, priority 2017, dated 2024)

Assays:
Type in all cases: cell-based, human
[1] = tested on: HCT116 cells transduced with the constructs; test: Response to Sildenafil, GFP expression by flow cytometry in HCT116; conditions: for MFI / Stabilization ratio with Sildenafil: 48 hours, HCT116; for Basal expression: Table 26, MFI with DMSO / parental HCT116, Sildenafil experiment
Procedure, shortened: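 HCT116 cells stably expressing AcGFP-fused destabilizing domains from a lentiviral mCherry-marked vector (sorted on mCherry) were exposed to sildenafil at 0.01–100 μM for 48 hours. GFP mean fluorescence intensity was measured by flow cytometry.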

[2] = tested on: HCT 116 cells transduced with the PDE5A DD derived GFP constructs; test: Response to Vardenafil, GFP expression by FACS in HCT116
Procedure, shortened: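 HCT116 cells stably carrying lentiviral AcGFP fusions of PDE5A (535-860) mutants, sorted on mCherry, got DMSO or Vardenafil (10 μM, or 0.002–30 μM) for 48 h, and GFP MFI was read by flow cytometry. Basal expression is untreated GFP over parental autofluorescence; the stabilization ratio is treated over untreated MFI.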

[3] = tested on: HCT 116 cells transduced with the PDE5A DD derived GFP constructs; test: Response to Tadalafil, GFP expression by FACS in HCT116
Procedure, shortened: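 HCT116 cells stably transduced (mCherry-sorted) with lentiviral PDE5A DD–AcGFP constructs, exposed to DMSO or Tadalafil 0.01–100 μM for 48 hrs. GFP mean fluorescence by FACS; stabilization ratio = ligand vs no-ligand signal, basal expression = no-ligand signal vs parental autofluorescence.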

[4] = DMSO (no Vardenafil), 48 hours, HCT116
[5] = Vardenafil 0.002 μM vs DMSO, 48 hours, HCT116
[6] = Vardenafil 0.002 μM, 48 hours, HCT116
[7] = Vardenafil 0.005 μM, 48 hours, HCT116
[8] = Vardenafil 0.014 μM vs DMSO, 48 hours, HCT116
[9] = Vardenafil 0.014 μM, 48 hours, HCT116
[10] = Vardenafil 0.041 μM vs DMSO, 48 hours, HCT116
[11] = Vardenafil 0.041 μM, 48 hours, HCT116
[12] = Vardenafil 0.123 μM vs DMSO, 48 hours, HCT116
[13] = Vardenafil 0.123 μM, 48 hours, HCT116
[14] = Vardenafil 0.370 μM vs DMSO, 48 hours, HCT116
[15] = Vardenafil 0.370 μM, 48 hours, HCT116
[16] = Vardenafil 1.111 μM vs DMSO, 48 hours, HCT116
[17] = Vardenafil 1.111 μM, 48 hours, HCT116
[18] = Vardenafil 3.333 μM vs DMSO, 48 hours, HCT116
[19] = Vardenafil 3.333 μM, 48 hours, HCT116
[20] = Vardenafil 10 μM vs DMSO, 48 hours, HCT116
[21] = Vardenafil 10 μM, 48 hours, HCT116
[22] = Vardenafil 30 μM, 48 hours, HCT116
[23] = DMSO (no Tadalafil), 48 hours, HCT116
[24] = Tadalafil 0.01 μM vs DMSO, 48 hours, HCT116
[25] = Tadalafil 0.01 μM, 48 hours, HCT116
[26] = Tadalafil 0.02 μM vs DMSO, 48 hours, HCT116
[27] = Tadalafil 0.02 μM, 48 hours, HCT116
[28] = Tadalafil 0.05 μM vs DMSO, 48 hours, HCT116
[29] = Tadalafil 0.05 μM, 48 hours, HCT116
[30] = Tadalafil 0.14 μM vs DMSO, 48 hours, HCT116
[31] = Tadalafil 0.14 μM, 48 hours, HCT116
[32] = Tadalafil 0.41 μM vs DMSO, 48 hours, HCT116
[33] = Tadalafil 0.41 μM, 48 hours, HCT116
[34] = Tadalafil 1.23 μM vs DMSO, 48 hours, HCT116
[35] = Tadalafil 1.23 μM, 48 hours, HCT116
[36] = Tadalafil 3.7 μM vs DMSO, 48 hours, HCT116
[37] = Tadalafil 3.7 μM, 48 hours, HCT116
[38] = Tadalafil 11.11 μM vs DMSO, 48 hours, HCT116
[39] = Tadalafil 11.11 μM, 48 hours, HCT116
[40] = Tadalafil 33.33 μM vs DMSO, 48 hours, HCT116
[41] = Tadalafil 33.33 μM, 48 hours, HCT116
[42] = Tadalafil 100 μM vs DMSO, 48 hours, HCT116
[43] = Tadalafil 100 μM, 48 hours, HCT116

PDE5AN (#3): N-terminal DD 535-860 of PDE5A (Q589R, K633E, T712S, K852E, K795E), SEQ ID NO. 66, fused to AcGFP
MFI ([1]; DMSO (no Sildenafil)): 9835
Stabilization ratio with Sildenafil ([1]; Sildenafil 0.01 μM vs DMSO): 1.0
MFI ([1]; Sildenafil 0.01 μM): 9888
Stabilization ratio with Sildenafil ([1]; Sildenafil 0.02 μM vs DMSO): 1.0
MFI ([1]; Sildenafil 0.02 μM): 10157
Stabilization ratio with Sildenafil ([1]; Sildenafil 0.05 μM vs DMSO): 1.0
MFI ([1]; Sildenafil 0.05 μM): 9952
Stabilization ratio with Sildenafil ([1]; Sildenafil 0.14 μM vs DMSO): 1.1
MFI ([1]; Sildenafil 0.14 μM): 10475
Stabilization ratio with Sildenafil ([1]; Sildenafil 0.41 μM vs DMSO): 1.3
MFI ([1]; Sildenafil 0.41 μM): 12302
Stabilization ratio with Sildenafil ([1]; Sildenafil 1.23 μM vs DMSO): 1.7
MFI ([1]; Sildenafil 1.23 μM): 16826
Stabilization ratio with Sildenafil ([1]; Sildenafil 3.70 μM vs DMSO): 2.8
MFI ([1]; Sildenafil 3.70 μM): 27542
Stabilization ratio with Sildenafil ([1]; Sildenafil 11.11 μM vs DMSO): 5.4
MFI ([1]; Sildenafil 11.11 μM): 52641
Stabilization ratio with Sildenafil ([1]; Sildenafil 33.33 μM vs DMSO): 8.7
MFI ([1]; Sildenafil 33.33 μM): 85509
MFI ([1]; Sildenafil 100.00 μM): 103938
Basal expression [1]: 7.6
MFI [2, 4]: 8934
Stabilization ratio ([2]; Table 10, 10 μM Vardenafil vs DMSO, 48 hours, HCT116): stabilization ratios similar to those observed for sildenafil
Stabilization ratio with Vardenafil [2, 5]: 1.0
MFI [2, 6]: 8767
MFI [2, 7]: 9620
Stabilization ratio with Vardenafil [2, 8]: 1.2
MFI [2, 9]: 10487
Stabilization ratio with Vardenafil [2, 10]: 1.6
MFI [2, 11]: 14086
Stabilization ratio with Vardenafil [2, 12]: 2.3
MFI [2, 13]: 20568
Stabilization ratio with Vardenafil [2, 14]: 4.1
MFI [2, 15]: 36786
Stabilization ratio with Vardenafil [2, 16]: 7.4
MFI [2, 17]: 66543
Stabilization ratio with Vardenafil [2, 18]: 11.1
MFI [2, 19]: 98986
Stabilization ratio with Vardenafil [2, 20]: 13.4
MFI [2, 21]: 119591
MFI [2, 22]: 131667
MFI [3, 23]: 6944
expression of GFP (MFI) with increasing doses of Tadalafil ([3]; Tadalafil 0.01 μM to 100 μM, 48 hours, HCT116): Tadalafil dose dependent increase in the MFI
Stabilization ratio with Tadalafil [3, 24]: 1.0
MFI [3, 25]: 6781
Stabilization ratio with Tadalafil [3, 26]: 1.0
MFI [3, 27]: 6685
Stabilization ratio with Tadalafil [3, 28]: 1.0
MFI [3, 29]: 7013
Stabilization ratio with Tadalafil [3, 30]: 1.0
MFI [3, 31]: 6988
Stabilization ratio with Tadalafil [3, 32]: 1.1
MFI [3, 33]: 7648
Stabilization ratio with Tadalafil [3, 34]: 1.3
MFI [3, 35]: 8973
Stabilization ratio with Tadalafil [3, 36]: 2.0
MFI [3, 37]: 14097
Stabilization ratio with Tadalafil [3, 38]: 3.8
MFI [3, 39]: 26560
Stabilization ratio with Tadalafil [3, 40]: 7.2
MFI [3, 41]: 49889
Stabilization ratio with Tadalafil [3, 42]: 9.9
MFI [3, 43]: 68532

PDE5AN (#53): N-terminal DD 535-860 of PDE5A (E536G, Q589R, C839S), SEQ ID NO. 67, fused to AcGFP
MFI ([1]; DMSO (no Sildenafil)): 13747
Stabilization ratio with Sildenafil ([1]; Sildenafil 0.01 μM vs DMSO): 0.9
MFI ([1]; Sildenafil 0.01 μM): 12801
Stabilization ratio with Sildenafil ([1]; Sildenafil 0.02 μM vs DMSO): 1.0
MFI ([1]; Sildenafil 0.02 μM): 14045
Stabilization ratio with Sildenafil ([1]; Sildenafil 0.05 μM vs DMSO): 1.0
MFI ([1]; Sildenafil 0.05 μM): 13801
Stabilization ratio with Sildenafil ([1]; Sildenafil 0.14 μM vs DMSO): 1.0
MFI ([1]; Sildenafil 0.14 μM): 14048
Stabilization ratio with Sildenafil ([1]; Sildenafil 0.41 μM vs DMSO): 1.2
MFI ([1]; Sildenafil 0.41 μM): 16175
Stabilization ratio with Sildenafil ([1]; Sildenafil 1.23 μM vs DMSO): 1.5
MFI ([1]; Sildenafil 1.23 μM): 20410
Stabilization ratio with Sildenafil ([1]; Sildenafil 3.70 μM vs DMSO): 2.2
MFI ([1]; Sildenafil 3.70 μM): 30372
Stabilization ratio with Sildenafil ([1]; Sildenafil 11.11 μM vs DMSO): 4.3
MFI ([1]; Sildenafil 11.11 μM): 59723
Stabilization ratio with Sildenafil ([1]; Sildenafil 33.33 μM vs DMSO): 7.2
MFI ([1]; Sildenafil 33.33 μM): 99558
Stabilization ratio with Sildenafil ([1]; Sildenafil 100.00 μM vs DMSO): 8.6
MFI ([1]; Sildenafil 100.00 μM): 117792
Basal expression [1]: 10.7
MFI [2, 4]: 14196
Basal (DMSO/Parental) ([2]; Table 10, GFP signal without ligand / auto fluorescence of parental HCT-116): 14.0
Basal ([2]; Table 15, MFI with DMSO / parental HCT116, Vardenafil experiment): 7.27
Stabilization ratio with Vardenafil [2, 5]: 1.0
MFI [2, 6]: 14117
Stabilization ratio with Vardenafil ([2]; Vardenafil 0.005 μM vs DMSO, 48 hours, HCT116): 1.0
MFI [2, 7]: 14485
Stabilization ratio with Vardenafil [2, 8]: 1.1
MFI [2, 9]: 15735
Stabilization ratio with Vardenafil [2, 10]: 1.2
MFI [2, 11]: 17260
Stabilization ratio with Vardenafil [2, 12]: 1.8
MFI [2, 13]: 25577
Stabilization ratio with Vardenafil [2, 14]: 3.1
MFI [2, 15]: 43744
Stabilization ratio with Vardenafil [2, 16]: 5.7
MFI [2, 17]: 81455
Stabilization ratio with Vardenafil [2, 18]: 9.2
MFI [2, 19]: 131016
Stabilization ratio with Vardenafil [2, 20]: 12.2
MFI [2, 21]: 173576
Stabilization ratio with Vardenafil ([2]; Vardenafil 30 μM vs DMSO, 48 hours, HCT116): 13.3
MFI [2, 22]: 188519
MFI [3, 23]: 12071
Basal expression ([3]; Table 21, MFI with DMSO / parental HCT116, Tadalafil experiment): 9.43
Stabilization ratio with Tadalafil [3, 24]: 1.0
MFI [3, 25]: 11635
Stabilization ratio with Tadalafil [3, 26]: 1.0
MFI [3, 27]: 11690
Stabilization ratio with Tadalafil [3, 28]: 1.0
MFI [3, 29]: 12100
Stabilization ratio with Tadalafil [3, 30]: 1.0
MFI [3, 31]: 12331
Stabilization ratio with Tadalafil [3, 32]: 1.1
MFI [3, 33]: 13422
Stabilization ratio with Tadalafil [3, 34]: 1.3
MFI [3, 35]: 16255
Stabilization ratio with Tadalafil [3, 36]: 2.0
MFI [3, 37]: 24201
Stabilization ratio with Tadalafil [3, 38]: 3.5
MFI [3, 39]: 42644
Stabilization ratio with Tadalafil [3, 40]: 6.6
MFI [3, 41]: 80088
Stabilization ratio with Tadalafil [3, 42]: 8.6
MFI [3, 43]: 104032
